According to patent US20230099344A1, “COMPOUNDS AND METHODS FOR THE TARGETED DEGRADATION OF IRAK-4” (Arvinas Operations, Inc., priority 2021, published 2023):

What follows are molecules tested against T1, IRAK-4 (Homo sapiens, UniProt Q9NWZ3) (assay: IRAK-4 ELISA, PBMC degradation). Conditions: treated overnight.
T1 sequence (Q9NWZ3 1-460): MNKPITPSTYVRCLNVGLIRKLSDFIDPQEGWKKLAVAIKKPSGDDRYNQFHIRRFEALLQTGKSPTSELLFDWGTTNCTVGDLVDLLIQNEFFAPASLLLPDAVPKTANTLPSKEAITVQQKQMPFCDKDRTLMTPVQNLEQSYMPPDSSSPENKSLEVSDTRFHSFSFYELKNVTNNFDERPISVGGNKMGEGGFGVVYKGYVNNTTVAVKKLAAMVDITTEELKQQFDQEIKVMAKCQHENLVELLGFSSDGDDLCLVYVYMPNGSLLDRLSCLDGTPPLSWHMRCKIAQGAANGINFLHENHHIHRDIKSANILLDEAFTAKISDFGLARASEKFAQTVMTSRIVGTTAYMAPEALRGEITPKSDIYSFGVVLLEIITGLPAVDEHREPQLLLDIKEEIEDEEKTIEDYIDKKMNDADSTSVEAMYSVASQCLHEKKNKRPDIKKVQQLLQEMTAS
Type: cell-based
Set-up: endogenous in cells; host or cells: PBMC
Summary of the method: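 Overnight compound treatment, started on the day of plating, of OCI-Ly10 (1×10^6/ml) and PBMC (2×10^6/ml) cultures. Lysates are collected and IRAK-4 content is read by sandwich ELISA.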

| SMILES | DC50 [nM] | Dmax [%] | PBMC DC90 |
| --- | --- | --- | --- |
| COc1cc2nn(C3CCN(CC4(F)CN(c5ccc6c(c5)C(=O)N(C5CCC(=O)NC5=O)C6=O)C4)CC3)cc2cc1NC(=O)c1cnn2ccc(N3CCOCC3)nc12 (stereo not drawn) [Example 236] | < 1 | 70 to 80 | A (A represents a DC90 value <10.0 nM) |
| CNc1ccn2ncc(C(=O)Nc3cc4cn(C5CCN(CC6(F)CN(c7ccc8c(c7)C(=O)N(C7CCC(=O)NC7=O)C8=O)C6)CC5)nc4cc3OCC3CC3)c2n1 (stereo not drawn) [Example 237] | 1 to 5 | 70 to 80 | D (D represents a DC90 value ≥50 nM) |
| COc1cc2nn(C3CCN(CC4(F)CN(c5ccc6c(c5)C(=O)N(C5CCC(=O)NC5=O)C6=O)C4)CC3)cc2cc1NC(=O)c1cnn2ccc(C3C[C@H]4C[C@@H]3CO4)nc12 (stereo partly drawn) [Example 238] | 1 to 5 | 70 to 80 | B (B represents a DC90 value ≥10.0 nM and <25.0 nM) |
| O=C1CCC(N2C(=O)c3ccc(N4CC(F)(CN5CCC(n6cc7cc(NC(=O)c8cnn9ccc(N%10C[C@H]%11C[C@@H]%10CO%11)nc89)c(OCC8CC8)cc7n6)CC5)C4)cc3C2=O)C(=O)N1 (stereo partly drawn) [Example 239] | 5 to 10 | < 70 | C (C represents a DC90 value ≥25.0 nM and <50 nM) |
| COc1cc(N2CC(F)(CN3CCC(n4cc5cc(NC(=O)c6cnn7cccnc67)c(OCC6CC6)cc5n4)CC3)C2)cc2c1C(=O)N(C1CCC(=O)NC1=O)C2 (stereo not drawn) [Example 242] | 1 to 5 | 80 to 90 | A (A represents a DC90 value <10.0 nM) |
| COc1cc2c(cc1N1CC(F)(CN3CCC(n4cc5cc(NC(=O)c6cnn7cccnc67)c(OCC6CC6)cc5n4)CC3)C1)C(=O)N(C1CCC(=O)NC1=O)C2=O (stereo not drawn) [Example 244] | 1 to 5 | 80 to 90 | B (B represents a DC90 value ≥10.0 nM and <25.0 nM) |
| O=C1CCC(N2C(=O)c3ccc(N4CCC5(CCC(CN6CCC(n7cc8cc(NC(=O)c9cnn%10cccnc9%10)c(OCC9CC9)cc8n7)CC6)CC5)CC4)cc3C2=O)C(=O)N1 (stereo not drawn) [Example 247] | 1 to 5 | ≥ 90 | B (B represents a DC90 value ≥10.0 nM and <25.0 nM) |
| C[C@H](Oc1cc2nn(C3CCN(CC4(F)CN(c5ccc6c(c5)C(=O)N(C5CCC(=O)NC5=O)C6=O)C4)CC3)cc2cc1NC(=O)c1cnn2cccnc12)C1CC1 (stereo partly drawn) [Example 264] | 1 to 5 | 70 to 80 | B (B represents a DC90 value ≥10.0 nM and <25.0 nM) |
| O=C1CCC(N2C(=O)c3cccc(N4CC(F)(CN5CCC(n6cc7cc(NC(=O)c8cnn9cccnc89)c(OCC8CC8)cc7n6)CC5)C4)c3C2=O)C(=O)N1 (stereo not drawn) [Example 270, N-(6-(cyclopropylmethoxy)-2-(1-((1-(2-(2,6-dioxopiperidin-3-yl)-1,3-dioxoisoindolin-4-yl)-3-fluoroazetidin-3-yl)methyl)piperidin-4-yl)-2H-indazol-5-yl)pyrazolo[1,5-a]pyrimidine-3-carboxamide] | ≥ 10 | < 70 | D (D represents a DC90 value ≥50 nM) |
| CC(C)Oc1cc2nn(C3CCN(CC4(F)CN(c5cccc6c5C(=O)N(C5CCC(=O)NC5=O)C6=O)C4)CC3)cc2cc1NC(=O)c1cnn2cccnc12 (stereo not drawn) [Example 271, N-(2-(1-((1-(2-(2,6-dioxopiperidin-3-yl)-1,3-dioxoisoindolin-4-yl)-3-fluoroazetidin-3-yl)methyl)piperidin-4-yl)-6-isopropoxy-2H-indazol-5-yl)pyrazolo[1,5-a]pyrimidine-3-carboxamide] | 5 to 10 | 80 to 90 | D (D represents a DC90 value ≥50 nM) |
| CC(C)Oc1cc2c(cc1NC(=O)c1cnn3cccnc13)CN([C@H]1CC[C@H](N3CCN(c4ccc5c(c4)CN(C4CCC(=O)NC4=O)C5=O)CC3)CC1)C2=O (stereo partly drawn) [Example 273, N-(2-((1r,4r)-4-(4-(2-(2,6-dioxopiperidin-3-yl)-1-oxoisoindolin-5-yl)piperazin-1-yl)cyclohexyl)-6-isopropoxy-1-oxoisoindolin-5-yl)pyrazolo[1,5-a]pyrimidine-3-carboxamide] | < 1 | ≥ 90 | A (A represents a DC90 value <10.0 nM) |
